Molecular target: T1, Serine/threonine-protein kinase Chk1 (Homo sapiens, UniProt O14757)
T1 sequence (O14757 whole entry): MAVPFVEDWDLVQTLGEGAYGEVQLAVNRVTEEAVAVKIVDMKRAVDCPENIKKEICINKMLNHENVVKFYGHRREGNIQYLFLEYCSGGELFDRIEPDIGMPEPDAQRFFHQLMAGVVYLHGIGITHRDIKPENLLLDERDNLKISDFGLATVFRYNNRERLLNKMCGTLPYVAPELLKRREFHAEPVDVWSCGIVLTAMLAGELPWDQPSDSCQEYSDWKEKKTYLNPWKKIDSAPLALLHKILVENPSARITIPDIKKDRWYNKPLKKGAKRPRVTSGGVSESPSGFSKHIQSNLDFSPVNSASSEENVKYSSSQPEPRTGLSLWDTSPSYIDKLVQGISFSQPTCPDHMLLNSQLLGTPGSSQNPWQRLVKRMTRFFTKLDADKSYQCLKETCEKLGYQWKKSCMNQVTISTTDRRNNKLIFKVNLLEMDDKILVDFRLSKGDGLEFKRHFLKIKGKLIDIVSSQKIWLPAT
Test: Inhibition of His-tagged CHK1 after 2 hrs by liquid scintillation counting

`CC(=O)Nc1cccc(-c2cc3c(N[C@H]4CCCNC4)ncc(C(N)=O)c3s2)c1` and `NC(=O)c1cnc(N[C@H]2CCCNC2)c2cc(-c3cccc(N)c3)sc12` are the same in IC50: 2 nM for the first, 2 nM for the second.

`CN(C)C(=O)c1ccc(-c2cc3c(N[C@H]4CCCNC4)ncc(C(N)=O)c3s2)cc1` and `NC(=O)c1ccc(-c2cc3c(N[C@H]4CCCNC4)ncc(C(N)=O)c3s2)cc1` are the same in IC50: 1 nM for the first, 1 nM for the second.

`COc1ccc(-c2cc3c(N[C@H]4CCCNC4)ncc(C(N)=O)c3s2)cn1` and `COc1ccc(-c2cc3c(N[C@H]4CCCNC4)ncc(C(N)=O)c3s2)cc1` are the same in IC50: 3 nM for the first, 3 nM for the second.

Going from `NC(=O)c1cnc(N[C@H]2CCCNC2)c2cc(-c3ccncc3)sc12` to `NC(=O)c1cnc(N[C@H]2CCCNC2)c2cc(-c3cccnc3)sc12`, the IC50 rises from 3 nM to 5 nM (1.7-fold). The first is the more potent here.

First: NC(=O)c1cnc(N[C@H]2CCCNC2)c2cc(-c3ccc(F)c(F)c3)sc12
Second: NC(=O)c1cnc(N[C@H]2CCCNC2)c2cc(-c3ccc(Cl)c(F)c3)sc12
The IC50 of the first is 4.5-fold lower: 2 nM for the first, 9 nM for the second. The first is the more potent here.

`CN(C)S(=O)(=O)c1cccc(-c2cc3c(N[C@H]4CCCNC4)ncc(C(N)=O)c3s2)c1` and `CN(C)S(=O)(=O)c1ccc(-c2cc3c(N[C@H]4CCCNC4)ncc(C(N)=O)c3s2)cc1` are within 1.5-fold of each other in IC50: 20 nM for the first, 16 nM for the second.

`NC(=O)c1cnc(N[C@H]2CCCNC2)c2cc(-c3ccccc3)sc12` and `NC(=O)c1cnc(N[C@H]2CCCNC2)c2cc(-c3cccc(Cl)c3)sc12` are the same in IC50: 4 nM for the first, 4 nM for the second.

Compared with `NC(=O)c1cnc(N[C@H]2CCCNC2)c2sc(-c3ccc(Cl)cc3)cc12`, `NC(=O)c1cnc(N[C@@H]2CCCNC2)c2cc(-c3ccc(Cl)cc3)sc12` is 22-fold lower in IC50: 4580 nM for the first, 211 nM for the second.

Going from `NC(=O)c1cnc(N[C@H]2CCCNC2)c2nc(-c3ccc(Cl)cc3)sc12` to `NC(=O)c1cnc(N[C@H]2CCCCNC2)c2cc(-c3ccc(Cl)cc3)sc12`, the IC50 falls from 9 nM to 3 nM (3-fold).

`NC(=O)c1cnc(N[C@H]2CCCNC2)c2cc(-c3ccccc3Cl)sc12` and `COc1ccccc1-c1cc2c(N[C@H]3CCCNC3)ncc(C(N)=O)c2s1` are within 1.5-fold of each other in IC50: 21 nM for the first, 19 nM for the second.

Going from `NC(=O)c1cnc(N[C@H]2CCCNC2)c2cc(-c3cccc4[nH]ccc34)sc12` to `NC(=O)c1cnc(N[C@H]2CCCNC2)c2cc(-c3ccc4[nH]ccc4c3)sc12`, the IC50 rises from 5 nM to 60 nM (12-fold).

Going from `NC(=O)c1cnc(N[C@H]2CCCNC2)c2cc(-c3cccc(CO)c3)sc12` to `N#Cc1cccc(-c2cc3c(N[C@H]4CCCNC4)ncc(C(N)=O)c3s2)c1`, the IC50 rises from 3 nM to 7 nM (2.3-fold).

Compared with `NC(=O)c1cnc(N[C@H]2CCCNC2)c2cc(-c3ccc4sccc4c3)sc12`, `Cn1ccc2cc(-c3cc4c(N[C@H]5CCCNC5)ncc(C(N)=O)c4s3)ccc21` is 2-fold higher in IC50: 4 nM for the first, 8 nM for the second. The first is the more potent here.

`NC(=O)c1cnc(N[C@H]2CCCNC2)c2cc(-c3ccc(Oc4ccccc4)cc3)sc12` and `NC(=O)c1cnc(N[C@H]2CCCNC2)c2cc(-c3ccc(F)cc3)sc12` are within 1.5-fold of each other in IC50: 4 nM for the first, 5 nM for the second.

Going from `NC(=O)c1cnc(N[C@H]2CCCNC2)c2cc(-c3ccc4cc[nH]c4c3)sc12` to `NC(=O)c1cnc(N[C@H]2CCCNC2)c2cc(-c3ccc4ncccc4c3)sc12`, the IC50 falls from 16 nM to 5 nM (3.2-fold).

First: NC(=O)Nc1sc(-c2ccc(Cl)cc2)cc1C(=O)NC1CCCCC1
Second: NC(=O)Nc1sc(-c2ccc(Cl)cc2)cc1C(=O)N1CCCC[C@H](N)C1
The IC50 of the first is 370-fold lower: 2 nM for the first, 746 nM for the second. The first is the more potent here.

Going from `NC(=O)c1cnc(N[C@H]2CCCNC2)c2cc(-c3ccc(F)cc3F)sc12` to `COc1ccc(F)cc1-c1cc2c(N[C@H]3CCCNC3)ncc(C(N)=O)c2s1`, the IC50 rises from 9 nM to 24 nM (2.7-fold).

Going from `NC(=O)c1cnc(N[C@H]2CCNC2)c2cc(-c3ccc(Cl)cc3)sc12` to `NC(=O)c1cnc(NC2CNC2)c2cc(-c3ccc(Cl)cc3)sc12`, the IC50 rises from 14 nM to 707 nM (50-fold).

Going from `NC(=O)c1cnc(N[C@H]2CCCNC2)c2cc(-c3ccc(C(F)(F)F)cc3)sc12` to `NC(=O)c1cnc(N[C@H]2CCCNC2)c2cc(-c3ccc(OC(F)(F)F)cc3)sc12`, the IC50 rises from 5 nM to 9 nM (1.8-fold).

Going from `CS(=O)(=O)c1ccc(-c2cc3c(N[C@H]4CCCNC4)ncc(C(N)=O)c3s2)cc1` to `NC(=O)c1cnc(N[C@H]2CCCNC2)c2cc(-c3ccc(F)c(Cl)c3)sc12`, the IC50 rises from 2 nM to 4 nM (2-fold).

First: CNCCNc1ncc(C(N)=O)c2sc(-c3ccc(Cl)cc3)cc12
Second: NC(=O)c1cnc(NC[C@@H]2CSCN2)c2cc(-c3ccc(Cl)cc3)sc12
The IC50 of the first is 130-fold lower: 7 nM for the first, 937 nM for the second.

`NC(=O)c1cnc(NCC2CCCCN2)c2cc(-c3ccc(Cl)cc3)sc12` (centres undefined) and `NC(=O)c1cnc(NC[C@@H]2CCCN2)c2cc(-c3ccc(Cl)cc3)sc12` are within 1.5-fold of each other in IC50: 292 nM for the first, 197 nM for the second.

Going from `NC(=O)c1cnc(N[C@H]2CCCNC2)c2cc(-c3ncccn3)sc12` to `NC(=O)c1cnc(N[C@H]2CCCNC2)c2cc(-c3cc(F)cc(F)c3)sc12`, the IC50 falls from 60 nM to 5 nM (12-fold).

Going from `NC(=O)c1cnc(N[C@H]2CCCNC2)c2cc(-c3cc4ccccc4o3)sc12` to `NC(=O)c1cnc(N[C@H]2CCCNC2)c2cc(-c3cnc4ccccc4c3)sc12`, the IC50 rises from 2 nM to 34 nM (17-fold). The first is the more potent here.

Going from `NC(=O)c1cnc(N2CCC[C@@H](N)C2)c2cc(-c3ccc(Cl)cc3)sc12` to `NC(=O)c1cnc(N[C@@H]2CCCC[C@H]2N)c2cc(-c3ccc(Cl)cc3)sc12`, the IC50 rises from 148 nM to 27100 nM (180-fold). The first is the more potent here.

`NC(=O)c1cnc(N[C@H]2CCCNC2)c2cc(C#Cc3cccnc3)sc12` and `NC(=O)c1cnc(N[C@H]2CCCNC2)c2cc(Br)sc12` are within 1.5-fold of each other in IC50: 67 nM for the first, 56 nM for the second.

Compared with `NC(=O)c1cnc(N[C@H]2CCCNC2)c2cc(-c3cccc(N4CCCC4)c3)sc12`, `NC(=O)c1cnc(N[C@H]2CCCNC2)c2ccsc12` is 240-fold higher in IC50: 3 nM for the first, 717 nM for the second.

Source: ChEMBL document CHEMBL1287790, “Design, synthesis and SAR of thienopyridines as potent CHK1 inhibitors” (Bioorg Med Chem Lett, 2010)
